Patent US20130310374A1, “Substituted Imidazoquinoline Derivatives” (PIRAMAL ENTERPRISES LIMITED`, priority 2010, published 2013)

Legend:
A2780 = assay: Cytotoxicity propidium iodide assay, A2780; type: cell-based; details: Homo sapiens; A2780 (ovarian), 48 hours treatment; read-out: IC50 Values in μM, C1a
Outline: (§1)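 Cells were seeded at 3000/well and allowed 18-24 h at 37 °C/5% CO2, then exposed to a compound dilution series for 48 h. After a PBS wash, propidium iodide was added and plates were frozen overnight, thawed and read by fluorescence. Viability was normalised to untreated wells (100%), and IC50 came from the plotted percentages.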

PC3 = assay: Cytotoxicity propidium iodide assay, PC3; type: cell-based, human; details: Homo sapiens, PC-3; PC3 (prostate), 48 hours treatment; read-out: IC50 Values in μM, C2a
Outline: as §1

MDA MB 231 = assay: Cytotoxicity propidium iodide assay, MDA MB 231; type: cell-based; details: Homo sapiens; MDA MB 231 (breast), 48 hours treatment; read-out: IC50 Values in μM, C3a
Procedure: (§2) The assay was designed as in the reference, Anticancer Drugs, 2002, 13, 1-8, the disclosure of which is incorporated herein by reference for the teaching of the assay.
(§3) Cells from cell lines (ATCC) as mentioned in the table given below were seeded at a density of 3000 cells/well in a white opaque 96-well plate. Following incubation at 37° C./5% CO2 for a period of 18-24 hours, the cells were treated with various concentrations (stock solution was prepared in DMSO and subsequent dilutions were made in media as per ATCC guidelines) of the compounds of the present invention for a period of 48 hours. At the end of treatment, the culture medium was discarded, the cells were washed with 1×PBS and 200 μL of […] propidium iodide was added to each well. […] For analysis, the plates were warmed to RT, allowed to thaw and were read in PoleStar fluorimeter with the fluorescence setting. The percentage of viable cells in the non-treated set of wells was considered to be 100 and the percentage viability following treatment was calculated accordingly. IC50 values were calculated from graphs plotted using these percentages. IC50 values for certain compounds of present invention are depicted in Table 1 and % Inhibition of certain compounds of present invention are depicted in Table 2.

MDA MB 468 = assay: Cytotoxicity propidium iodide assay, MDA MB 468; type: cell-based; details: Homo sapiens; MDA MB 468 (breast), 48 hours treatment; read-out: IC50 Values in μM, C3b
Procedure: as §2
(§4) Cells from cell lines (ATCC) as mentioned in the table given below were seeded at a density of 3000 cells/well in a white opaque 96-well plate. Following incubation at 37° C./5% CO2 for a period of 18-24 hours, the cells were treated with various concentrations (stock solution was prepared in DMSO and subsequent dilutions were made in media as per ATCC guidelines) of the compounds of the present invention for a period of 48 hours. At the end of treatment, the culture medium was discarded, the cells were washed with 1×PBS and 200 μL of […] propidium iodide was added to each well. The plates were frozen at […] overnight. For analysis, the plates were warmed to RT, allowed to thaw and were read in PoleStar fluorimeter with the fluorescence setting. The percentage of viable cells in the non-treated set of wells was considered to be 100 and the percentage viability following treatment was calculated accordingly. IC50 values were calculated from graphs plotted using these percentages. IC50 values for certain compounds of present invention are depicted in Table 1 and % Inhibition of certain compounds of present invention are depicted in Table 2.

BT 549 = assay: Cytotoxicity propidium iodide assay, BT 549; type: cell-based; details: Homo sapiens; BT 549 (breast), 48 hours treatment; read-out: IC50 Values in μM, C3c
Procedure: as §2, §4

MCF7 = assay: Cytotoxicity propidium iodide assay, MCF7; type: cell-based; details: Homo sapiens; MCF7 (breast), 48 hours treatment; read-out: IC50 Values in μM, C3d
Procedure: as §2, §4

PANC 1 = assay: Cytotoxicity propidium iodide assay, PANC 1; type: cell-based; details: Homo sapiens; PANC 1 (pancreatic), 48 hours treatment; read-out: IC50 Values in μM, C4a
Procedure: as §2, §4

AsPC 1 = assay: Cytotoxicity propidium iodide assay, AsPC 1; type: cell-based; details: Homo sapiens, ASPC1; AsPC 1 (pancreatic), 48 hours treatment; read-out: IC50 Values in μM, C4b
Procedure: as §2, §3

BxPC3 = assay: Cytotoxicity propidium iodide assay, BxPC3; type: cell-based; details: Homo sapiens, BXPC-3; BxPC3 (pancreatic), 48 hours treatment; read-out: IC50 Values in μM, C4c
Procedure: as §2, §4

K562 = assay: Cytotoxicity propidium iodide assay, K562; type: cell-based; details: Homo sapiens; K562 (CML), 48 hours treatment; read-out: IC50 Values in μM, C6a
Procedure: as §2, §4

T315I = assay: Cytotoxicity propidium iodide assay, T315I; type: cell-based; details: T315I (CML), 48 hours treatment; read-out: IC50 Values in μM, C6b
Procedure: as §2, §4

KU812/SR = assay: Cytotoxicity propidium iodide assay, KU812/SR; type: cell-based; details: Homo sapiens; KU812/SR (CML), 48 hours treatment; read-out: IC50 Values in μM, C6c
Procedure: as §2, §4

KU812 = assay: Cytotoxicity propidium iodide assay, KU812; type: cell-based; details: Homo sapiens; KU812 (CML), 48 hours treatment; read-out: IC50 Values in μM, C6d
Procedure: as §2, §4

KCL22/SR = assay: Cytotoxicity propidium iodide assay, KCL22/SR; type: cell-based; details: Homo sapiens, KCL-22; KCL22/SR (CML), 48 hours treatment; read-out: IC50 Values in μM, C6e
Procedure: as §2, §4

KCL22 = assay: Cytotoxicity propidium iodide assay, KCL22; type: cell-based; details: Homo sapiens, KCL-22; KCL22 (CML), 48 hours treatment; read-out: IC50 Values in μM, C6f
Procedure: as §2, §3

Structure (SMILES) | IC50 (A2780) [µM] | IC50 (PC3) [µM] | IC50 (MDA MB 231) [µM] | IC50 (MDA MB 468) [µM] | IC50 (BT 549) [µM] | IC50 (MCF7) [µM] | IC50 (PANC 1) [µM] | IC50 (AsPC 1) [µM] | IC50 (BxPC3) [µM] | IC50 (K562) [µM] | IC50 (T315I) [µM] | IC50 (KU812/SR) [µM] | IC50 (KU812) [µM] | IC50 (KCL22/SR) [µM] | IC50 (KCL22) [µM]
COc1ccc(-n2c(=O)n(C)c3cnc4ccc(-c5cnc6ccccc6c5)cc4c32)cn1 [Example 20, 1-(6-Methoxypyridin-3-yl)-3-methyl-8-(quinolin-3-yl)-1H-imidazo[4,5-c]quinolin-2(3H)-one] | 0.07 | 0.27 | 0.37 | 0.47 | 1 | 0.55 | 0.25 | 0.4 | 0.45 | 0.1 | 1.96 | 5.44 | 1.99 | 1.09 | 2.86
Cn1c(=O)n(CCN2CCOCC2)c2c3cc(-c4cnc5ccccc5c4)ccc3ncc21 [Example 70, 3-Methyl-1-(2-morpholinoethyl)-8-(quinolin-3-yl)-1H-imidazo[4,5-c]quinolin-2(3H)-one] | 0.3 | 0.9 | 0.7 | 1.1 | 2.1 | 0.7 | 1 | 1.6 | 0.7 | 0.7 | 2.56 | 3.38 | 4 | 1.57 | 2.17
